Results: patent publication US11807620B2, “Quinazolinone compounds and related compounds” (PLEXIUM, INC., priority 2020, dated 2023)

Tests used:
IKZF1 (Ikaros) = biological target: T1, IKZF1 (Ikaros) (Homo sapiens, UniProt Q13422+Q96SW2); assay: Stable cell line fluorescent reporter degradation assay, IKZF1; assay type: cell-based; conditions: HEK 293T IKZF1-mNeonGreen reporter cells, 24 hour incubation, calculated visually from the curves; for Dmax at 10 µM: 10 micromolar
T1 construct: mScarlet (C, cleaved yes); expressed in transfected cells
Source text: (§1) Polycistronic plasmids were constructed for the mammalian expression of fluorescent reporter fusions of human transcription factors IKZF1 (Ikaros) and IKZF3 (Aiolos). The respective protein sequences had their C-terminal end joined to a GGGGS linker repeated three times followed by mNeonGreen, P2A sequence, and mScarlet. IKZF1 expression was driven by a CMV promoter while IKZF3 was EF1α promoter driven. The plasmids contained the HygR resistance gene for positive selection of cells with genomic integration of the reporter constructs. The plasmids were transfected using cationic lipid reagents into adherent HEK 293T cells and stable integrants were selected by treatment with 200 ug/mL hygromycin B. Clonal populations were obtained from the population of stable integrants either by limiting dilution or fluorescence activated cell sorting. The clonal stable cell lines were maintained under constant 200 ug/mL hygromycin B selection while being passaged for use in the degradation assays. The fluorescence intensity of the IKZF1/2/3-mNeonGreen (FITC channel) and mScarlet (PE channel) reporters were routinely analyzed by flow cytometry to confirm consistent expression levels between experiments.
(§2) Representative compounds were evaluated for their ability to degrade IKZF1 and IKZF3 in the following assay.
(§3) The IKZF1/IKZF3 degradation assays were carried out by harvesting the HEK 293T reporter cell lines and resuspending the cells in media formulated for reduced background fluorescence. The respective cell lines were seeded at a density of 4,000 cells/well into black-walled 384-well optical grade assay plates pre-coated by the manufacturer with PDL. The cells were incubated overnight to allow for attachment to the assay plate (37° C. with humidified air and 5% CO2 for all incubations). Dilutions of the compounds were prepared in dimethyl sulfoxide (DMSO) from 10 mM compound stock solutions in DMSO. The assay plates were treated with appropriate concentrations of the compounds by dispensing the DMSO dilutions in quadruplicate wells with an upper limit of 0.5% final DMSO.
(§4) After a 24 hour incubation with the compounds, the assay plates were imaged on an ImageXpress Pico microscopy system (cells maintained at 37° C. during imaging) to obtain the fluorescent readouts. The assay plates were imaged in the FITC and TRITC channels to obtain the mNeonGreen fluorescence intensity (reporter degradation data) and mScarlet fluorescence intensity (for cell segmentation), respectively. 293T-IKZF1 and 293T-IKZF3 reporter cell lines were imaged with exposures of 500 milliseconds (ms) for both FITC and TRITC channels. The resulting data was analyzed with Cell Reporter Xpress software using the 2-channel cell scoring analysis with a “percent positive” readout. The TRITC channel was selected for the “nuclei” segmentation with a threshold of 20 while the FITC channel was selected for the “Marker 1” segmentation and a threshold of 100 for the IKZF1 and IKZF3 reporter lines. The minimum segmentation width was set to 6 micrometers and the maximum segmentation width was set to 15 micrometers for all cell lines.
(§5) The percent degradation amounts were calculated visually from the curves generated at a concentration of 10 micromolar.

IKZF3 (Aiolos) = biological target: T2, IKZF3 (Aiolos) (Homo sapiens, UniProt Q96SW2+Q9UKT9); assay: Stable cell line fluorescent reporter degradation assay, IKZF3; assay type: cell-based; conditions: HEK 293T IKZF3-mNeonGreen reporter cells, 24 hour incubation, calculated visually from the curves; for Dmax at 10 µM: 10 micromolar
T2 construct: mScarlet (C, cleaved yes); expressed in transfected cells
Source text: as §1, §2, §3, §4, §5

cereblon (NanoLuc-CRBN) = biological target: T3, cereblon (NanoLuc-CRBN) (Homo sapiens, UniProt Q96SW2); assay: NanoBRET CRBN Cellular Target Engagement Assay; assay type: binding; conditions: compound tested at 10 μM, HEK293T cells transfected with NanoLuc-CRBN, 2 hr incubation; for remaining activity at 10 µM: lower = higher affinity, read-out: % tracer bound At the end of assay; for inhibition at 10 µM: read-out: % tracer removed From CBLN
T3 construct: host or cells: HEK293T
Source text: The following example measures the extent to which a test compound of this invention binds to cereblon. In this example, a commercially available cereblon binding test kit (Promega Corporation, Madison, Wis., USA) was used but adapted to a 384 well format.
The kit comprises a tracer that binds to cereblon to form a tracer-cereblon complex. This complex is reversible. Upon addition of the test compound, competition between the tracer and the test compound for the binding site(s) on cereblon occurs. The extent of tracer release from cereblon correlates to the affinity of test compound to bind to cereblon. The higher the affinity, the more tracer is released from cereblon.
The assay is a homogenous cell-based assay that used bioluminescence resonance energy transfer (BRET) to measure cereblon target compound binding which causes loss of BRET. Lower BRET values correlate to higher loss of tracer bound to cereblon and, accordingly, higher the levels of target compound binding to cereblon.
The specifics of the assay include HEK293T cells were transfected with a NanoLuc-CRBN expression plasmid using Fugene as described. Approximately 24 hr later, transfected cells were washed with 1× Phosphate Buffered Saline (PBS) and harvested using trypsin. Cells were resuspended in Opti-MEM (available from Thermo Fisher Scientific) at a concentration of 2×10^5 cells/mL. A ratio of 1 part 100× Tracer to 4 parts NanoBRET Tracer Dilution Buffer was used to make a 20× Tracer stock. Next, 40 μl cells per well containing 1× tracer was dispensed into 384 well white tissue culture treated plates. Compounds were then dispensed using a D330e Digital Dispenser (Tecan Trading AG) and plates were allowed to incubate for 2 hr at 37° C., 5% CO2. Immediately prior to BRET measurements, a 3× Complete NanoBret Nano-Glo Substrate stock in Opti-MEM was prepared and 20 μl per well of substrate was subsequently added to the assay plates. Following a 2-3 minute incubation at room temperature, donor (450 nm) and acceptor (610 nm) emission values were read on a CLARIOStar multimode plate reader (BMG) in luminescence mode. Data were converted to milliBRET units by dividing acceptor emission values by donor emission and multiplying by 1000. […]

T2 sequence (Q9UKT9 whole entry): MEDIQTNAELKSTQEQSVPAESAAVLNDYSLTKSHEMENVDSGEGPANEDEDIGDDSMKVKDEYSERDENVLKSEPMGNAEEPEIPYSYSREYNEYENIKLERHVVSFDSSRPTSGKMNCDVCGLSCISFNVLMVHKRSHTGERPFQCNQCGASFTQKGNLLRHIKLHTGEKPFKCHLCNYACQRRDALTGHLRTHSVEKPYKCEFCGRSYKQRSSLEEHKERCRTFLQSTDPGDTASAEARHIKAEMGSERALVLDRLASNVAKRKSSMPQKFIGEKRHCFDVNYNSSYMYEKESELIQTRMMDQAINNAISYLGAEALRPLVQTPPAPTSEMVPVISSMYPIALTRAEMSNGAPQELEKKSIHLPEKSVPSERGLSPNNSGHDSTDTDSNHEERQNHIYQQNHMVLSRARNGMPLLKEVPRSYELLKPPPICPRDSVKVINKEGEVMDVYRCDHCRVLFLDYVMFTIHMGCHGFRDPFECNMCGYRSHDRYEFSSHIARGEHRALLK
T2 sequence (Q96SW2 whole entry): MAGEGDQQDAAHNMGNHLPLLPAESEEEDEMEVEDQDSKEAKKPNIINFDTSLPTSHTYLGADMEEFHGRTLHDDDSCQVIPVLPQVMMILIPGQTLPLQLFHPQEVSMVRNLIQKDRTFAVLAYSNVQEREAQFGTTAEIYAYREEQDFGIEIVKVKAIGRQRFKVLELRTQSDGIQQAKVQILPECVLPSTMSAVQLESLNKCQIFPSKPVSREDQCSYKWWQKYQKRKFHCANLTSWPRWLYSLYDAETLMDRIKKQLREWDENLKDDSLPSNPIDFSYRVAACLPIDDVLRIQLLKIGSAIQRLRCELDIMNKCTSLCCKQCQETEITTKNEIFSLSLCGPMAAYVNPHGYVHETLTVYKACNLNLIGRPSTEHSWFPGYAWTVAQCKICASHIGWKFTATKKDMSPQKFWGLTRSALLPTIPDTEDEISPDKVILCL
T2 sequence (Q16531 whole entry partner): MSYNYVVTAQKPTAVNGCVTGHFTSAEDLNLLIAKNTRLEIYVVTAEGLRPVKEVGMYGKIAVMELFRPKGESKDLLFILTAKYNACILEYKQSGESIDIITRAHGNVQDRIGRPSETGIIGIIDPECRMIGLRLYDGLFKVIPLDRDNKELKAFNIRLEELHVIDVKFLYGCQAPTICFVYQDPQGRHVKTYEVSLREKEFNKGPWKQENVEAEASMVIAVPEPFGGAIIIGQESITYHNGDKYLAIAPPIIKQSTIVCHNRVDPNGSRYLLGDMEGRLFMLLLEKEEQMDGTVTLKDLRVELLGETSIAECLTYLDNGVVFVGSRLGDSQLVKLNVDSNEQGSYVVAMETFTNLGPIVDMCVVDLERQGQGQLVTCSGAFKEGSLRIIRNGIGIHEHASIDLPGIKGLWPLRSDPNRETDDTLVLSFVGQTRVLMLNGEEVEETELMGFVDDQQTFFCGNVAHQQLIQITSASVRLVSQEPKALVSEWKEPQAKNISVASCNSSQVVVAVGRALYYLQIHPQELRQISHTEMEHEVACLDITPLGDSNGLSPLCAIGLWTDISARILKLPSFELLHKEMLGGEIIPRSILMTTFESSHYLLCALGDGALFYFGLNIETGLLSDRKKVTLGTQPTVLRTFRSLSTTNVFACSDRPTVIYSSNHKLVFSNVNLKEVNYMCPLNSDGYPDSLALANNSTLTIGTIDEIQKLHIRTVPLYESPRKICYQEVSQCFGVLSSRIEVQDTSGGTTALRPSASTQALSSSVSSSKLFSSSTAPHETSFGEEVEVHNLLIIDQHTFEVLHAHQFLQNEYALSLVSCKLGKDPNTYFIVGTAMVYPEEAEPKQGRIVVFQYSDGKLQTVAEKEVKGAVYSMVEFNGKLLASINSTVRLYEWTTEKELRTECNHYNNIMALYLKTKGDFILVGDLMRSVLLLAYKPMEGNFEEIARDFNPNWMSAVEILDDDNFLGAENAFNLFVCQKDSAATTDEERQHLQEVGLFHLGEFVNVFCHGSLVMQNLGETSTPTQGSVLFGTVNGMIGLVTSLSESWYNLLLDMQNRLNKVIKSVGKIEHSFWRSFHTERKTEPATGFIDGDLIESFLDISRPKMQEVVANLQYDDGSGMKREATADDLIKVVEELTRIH
T1 sequence (Q13422 whole entry): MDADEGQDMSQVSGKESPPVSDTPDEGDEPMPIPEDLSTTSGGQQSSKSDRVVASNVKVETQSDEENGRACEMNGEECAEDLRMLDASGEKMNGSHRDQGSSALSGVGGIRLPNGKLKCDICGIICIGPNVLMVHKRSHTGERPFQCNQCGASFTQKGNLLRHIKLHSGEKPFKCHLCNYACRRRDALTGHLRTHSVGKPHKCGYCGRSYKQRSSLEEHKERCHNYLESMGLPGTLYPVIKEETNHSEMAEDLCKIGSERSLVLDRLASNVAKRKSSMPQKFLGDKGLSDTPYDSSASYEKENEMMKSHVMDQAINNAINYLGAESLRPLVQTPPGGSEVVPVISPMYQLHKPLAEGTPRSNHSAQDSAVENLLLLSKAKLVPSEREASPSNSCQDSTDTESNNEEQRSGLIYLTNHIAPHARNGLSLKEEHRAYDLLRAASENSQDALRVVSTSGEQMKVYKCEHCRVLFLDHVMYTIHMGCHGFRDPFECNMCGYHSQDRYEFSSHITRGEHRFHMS
T1 sequence (Q96SW2 whole entry): as the sequence (Q96SW2 whole entry) above
T1 sequence (Q16531 whole entry partner): as the sequence (Q16531 whole entry partner) above
T3 sequence (Q96SW2 whole entry): as the sequence (Q96SW2 whole entry) above

Compound	Dmax at 10 µM (IKZF1 (Ikaros); HEK-293T, 24 h) [%]	Dmax at 10 µM (IKZF3 (Aiolos); HEK-293T, 24 h) [%]	remaining activity at 10 µM (cereblon (NanoLuc-CRBN)) [%]	inhibition at 10 µM (cereblon (NanoLuc-CRBN)) [%]	Dmax at 10 µM (IKZF1 (Ikaros)) [%]	Dmax at 10 µM (IKZF3 (Aiolos)) [%]	% Degradation IKZF1 @ 10 micromolar (IKZF1 (Ikaros)) [%]	% Degradation IKZF3 @ 10 micromolar (IKZF3 (Aiolos)) [%]
Cc1nc2cccc(NCc3ccc(CN4CC(N5CCOCC5)C4)cc3F)c2c(=O)n1C1CCC(=O)NC1=O (centres unmarked) [compound 91, 3-(5-((2-fluoro-4-((3-morpholinoazetidin-1-yl)methyl)benzyl)amino)-2-methyl-4-oxoquinazolin-3(4H)-yl)piperidine-2,6-dione]	97.1	96.3	–	–	–	–	–	–
Cc1nc2cccc(NCc3ccc(F)cc3)c2c(=O)n1C1CCC(=O)NC1=O (centres unmarked) [Example 4, 3-(5-((4-fluorobenzyl)amino)-2-methyl-4-oxoquinazolin-3(4H)-yl)piperidine-2,6-dione]	92.4	95.8	40.9	59.1	–	–	–	–
COc1ccc(CNc2cccc3nc(C)n(C4CCC(=O)NC4=O)c(=O)c23)cc1 (centres unmarked) [Example 1, 3-(5-((4-methoxybenzyl)amino)-2-methyl-4-oxoquinazolin-3(4H)-yl)piperidine-2,6-dione]	–	–	47.3	52.7	89.1	91.1	–	–
Cc1nc2cccc(NCc3cccc(CN4CCN(c5ccc(C#N)cc5F)CC4)c3)c2c(=O)n1C1CCC(=O)NC1=O (centres unmarked) [compound 33, 4-(4-(3-(((3-(2,6-dioxopiperidin-3-yl)-2-methyl-4-oxo-3,4-dihydroquinazolin-5-yl)amino)methyl)benzyl)piperazin-1-yl)-3-fluorobenzonitrile]	–	–	–	–	95.5	87.4	–	–
Cc1nc2cccc(NCc3cccc(F)c3)c2c(=O)n1C1CCC(=O)NC1=O (centres unmarked) [Example 5, 3-(5-((3-fluorobenzyl)amino)-2-methyl-4-oxoquinazolin-3(4H)-yl)piperidine-2,6-dione]	89.7	93.6	23.8	76.2	–	–	–	–
Cc1cccc(CNc2cccc3nc(C)n(C4CCC(=O)NC4=O)c(=O)c23)c1 (centres unmarked) [Example 7, 3-(2-methyl-5-((3-methylbenzyl)amino)-4-oxoquinazolin-3(4H)-yl)piperidine-2,6-dione]	76.8	94.3	22.9	77.1	–	–	–	–
Cc1nc2cccc(NCc3ccc(CN4CCN(c5ccc(C#N)cc5F)CC4)cc3)c2c(=O)n1C1CCC(=O)NC1=O (centres unmarked) [Example 34, 4-(4-(4-(((3-(2,6-dioxopiperidin-3-yl)-2-methyl-4-oxo-3,4-dihydroquinazolin-5-yl)amino)methyl)benzyl)piperazin-1-yl)-3-fluorobenzonitrile]	–	–	27.4	72.6	93.1	93.2	–	–
O=C1CCC(n2nnc3cccc(NCc4ccc(CN5CCOCC5)cc4)c3c2=O)C(=O)N1 (centres unmarked) [compound 36, 3-(5-((4-(morpholinomethyl)benzyl)amino)-4-oxobenzo[d][1,2,3]triazin-3(4H)-yl)piperidine-2,6-dione]	88.2	87.4	–	–	–	–	–	–
Cc1nc2cccc(NCc3ccc(CN4CCOCC4)cc3)c2c(=O)n1C1CCC(=O)NC1=O (centres unmarked) [compound 32, 3-(2-methyl-5-((4-(morpholinomethyl)benzyl)amino)-4-oxoquinazolin-3(4H)-yl)piperidine-2,6-dione]	–	–	–	–	93.8	91.9	–	–
O=C1CCC(n2cnc3cccc(NCc4ccc(CN5CC(N6CCOCC6)C5)cc4F)c3c2=O)C(=O)N1 (centres unmarked) [compound 101, 3-(5-((2-fluoro-4-((3-morpholinoazetidin-1-yl)methyl)benzyl)amino)-4-oxoquinazolin-3(4H)-yl)piperidine-2,6-dione]	78.4	92.4	–	–	–	–	–	–
Cc1nc2cccc(NCc3ccc(CN4CC(N5CCOCC5)C4)cc3F)c2c(=O)n1C1CCC(=O)NC1=O (centres unmarked) [Example 96, 3-(5-((2-fluoro-4-((3-morpholinoazetidin-1-yl)methyl)benzyl)amino)-2-methyl-4-oxoquinazolin-3(4H)-yl)piperidine-2,6-dione]	–	–	–	–	–	–	92.6	92.6
